Assay results reported in a melting point compilation (Tetko et al.; mined from patent text by program, amines drawn as free bases though some values may be those of a salt).

SMILES	melting point [°C]
O=C(Nn1c(=O)c(=O)[nH]c2cc(C(F)(F)F)c([N+](=O)[O-])cc21)C(F)(F)F	> 250
O=C(OCCN1CCOC1=O)c1ccccc1Nc1ccnc2cc(C(F)(F)F)ccc12	124 to 125
COc1ccc(NC(=O)c2ccc(Br)s2)cc1N1CCN(C)CC1	114 to 115
O=Cc1cc(Cl)ccc1Oc1ccc(Cl)cc1[N+](=O)[O-]	128 to 130
O=C(C1CCCN1C(=O)CCCN1C(=O)c2ccccc2C1=O)N1CCCC1 (configuration not stated)	148 to 149
COC(=O)CCc1ccc(N2CCN(c3ccc(C(=N)NC(=O)OC)cc3)C2=O)cc1	> 260
CCCCCCCCOc1cc(-c2cccc([N+](=O)[O-])c2)c(OCC(=O)O)c(-c2cccc([N+](=O)[O-])c2)c1	129 to 132
O=C(CN1CCN(c2ccccc2)CC1)c1ccccc1	104 to 106
CC(=O)N[C@H](COCc1cc(C)cc(C)c1)Cc1ccccc1	76 to 78
OC(c1ccccc1)C1CCCN1 (configuration not stated)	110
COc1ccc(N(C)C(=O)CN2C(=O)c3ccccc3C2=O)c(OC)c1COc1cccc2ccc(C)nc12	184 to 185
COC(=O)c1ccc(Cc2cccc3ccc(NC(=O)CC4CCCC4)cc23)c(OC)c1	172 to 174
O=S(=O)(N[C@H]1CC[C@H](CCN2CCN(c3nccc4c3CCO4)CC2)CC1)c1ccc(F)cc1	221
CCCOC[C@]1(OC)CC[C@H]2[C@@H]3CCC4=CC(=O)CCC4=C3[C@@H](c3ccc(C(C)=O)cc3)C[C@@]21C	118 to 120
COCCN(C)CC1=Cc2cc(S(N)(=O)=O)sc2S(=O)(=O)N1C	127 to 129
c1nc(Nc2ccc(N3CCOCC3)cc2)cc(NC2CCCCC2)n1	239 to 240
COC(=O)Cc1ccc(CNC(=O)C2Cc3ccccc3N2S(=O)(=O)c2ccc(-c3cccc(Cl)c3)cc2)cc1 (configuration not stated)	70
CCN(CCOc1ccc(Cl)c2[nH]cc(Cl)c12)c1ccsc1	123 to 125
O=C(CNc1ccc2cn[nH]c2c1)N1CCC(Cc2ccccc2)CC1	179 to 182
CCOC(=O)c1cc(-c2ccc(N)cc2)n(-c2ccc(F)cc2)n1	158 to 160
Cc1nc2c3c(ccn2c1C)[C@@](C)(O)[C@H](O)[C@@H](c1ccccc1)N3	137 to 138
COC(=O)CC(=O)C[C@@H]1[C@@H](N2C(=O)c3ccccc3C2=O)C(=O)N1C(=O)C(=O)OC	130 to 132
COc1ccc2c(c1)CCc1c-2n(-c2ccc(O[Si](C)(C)C(C)(C)C)cc2)c(=O)c2cc(OC)ccc12	194 to 195
CCOC(=O)c1c(CN2CCCC2=O)nc2sc3c(c2c1-c1ccc2c(c1)OCO2)CCN(C(=O)c1ccccc1)C3	270 to 271
COC(=O)c1ccc(OCC(O)CNC(C)(C)C)cc1 (configuration not stated)	88 to 89

SMILES	melting point [°C]
c1cc(CN2CCCCC2)ccc1CN1CCCCC1	86 to 88
NC(CCCSc1nccc(NC(N)=NCC(F)(F)F)n1)=NO	137 to 139
CN(C)CCn1c(=O)c2cccc(N)c2c2cnc3cc4c(cc3c21)OCO4	223 to 224
CC(C)(C)C(=O)c1c[nH]c2ncc(-c3cc(OCCS(C)(=O)=O)cc(N4CCCC4)c3)nc12	230 to 232
O=C1Nc2ccc(Cl)cc2C2(c3ccccc3)OCCCN12 (configuration not stated)	202 to 204
C=CC(=O)OCC(=O)OCCCCCCOC(=O)COC(=O)C=C	66
Cc1ccccc1-c1cc(C#N)c(SSc2[nH]c(-c3ccccc3C)cc2C#N)[nH]1	248 to 249
CC(C)=CCCC(C)C1CCC2C3CC(O)C4CC(O)CCC4(C)C3CCC12C (configuration not stated)	188 to 190
COc1ccc(-c2ccc(C)nc2-c2ccc(O)cc2)cc1	190
CC(=O)OCCn1ccc(=O)c(O)c1Cc1ccc(C)cc1	205 to 206
CCCCN(CC)CC(=O)N1c2ccccc2N(C)C(=O)c2cnc(-c3ccccc3)nc21	107 to 109
OCc1cn(-c2ccc(F)c(C(F)F)c2)cn1	133 to 134
NCc1[nH]c2cc(Br)c(Cl)cc2c1-c1ccccc1	162 to 163
CC1(C(=O)O)CCCc2cc(C3CCCCC3)ccc21 (configuration not stated)	128 to 129
CN(C)C=C(C#N)C(=O)c1ccco1	117 to 125
C#CCOc1cc(Oc2cccc(Cl)c2Cl)ncn1	91.9
CCC(=O)Nc1ccc(Cl)c(COc2cccn3c(Br)c(C)nc23)c1Cl	205 to 207
CS(=O)(=O)c1ccc2c(C=C[N+](=O)[O-])c[nH]c2c1	> 250
COc1ccccc1Oc1c(N=[N+]=[N-])nc(N2CCOCC2)nc1OCCOCc1ccccc1	146 to 148
COC(=O)c1ccc(-c2ccc(I)c(O)c2)cc1	192
C=CS(=O)(=O)NC(=O)Nc1nc(C)cc(C)n1	131 to 133
CCCc1cccc(N(CC(=O)OC)NC(=O)NC)c1	76 to 77
CC(=O)C(Cl)=NNc1ccccc1S(C)(=O)=O	253 to 255
Cc1cc(-c2noc(C(F)F)n2)cc(C)c1OCCCc1n[nH]c(=O)s1	110 to 111
C=CCOC(=O)c1ccc(NC(=O)C(=NO)c2ccc3c(c2)C(C)(C)CCC3(C)C)cc1	176 to 177

SMILES	melting point [°C]
COCCn1nc2c(N)nc3ncccc3c2c1CC(C)(C)C(N)=O	254 to 257
CCOC(=O)c1cc(C)n(-c2cccc(C(=O)O)c2)c1-c1ccccc1	161 to 163
C=CC1(CC(=O)O)CC(C)(C)CC(C)(C)C1	92 to 94
COC1CCCN(Nc2nc(Cl)nc3c2ncn3C2OC(CCl)C(O)C2O)C1 (configuration not stated)	200 to 202
O=S1(=O)CCc2nn(-c3ccc(Cl)cc3F)c(Cl)c2C1	141 to 143
COC(=O)Cc1ccc2c(c1)CCc1ccccc1S2	103 to 105
Cc1cc(-c2nnc3c4ccccc4c(OCc4ccncc4)nn23)no1	244 to 246
COc1cc2c(cc1OC)CN(C(=O)Cc1ccc(OC)c([N+](=O)[O-])c1)CC2	175
CC(C)c1ccc(S(=O)(=O)n2c(CCCC(=O)O)cc3nc(Cl)ccc32)cc1	155
Cc1c(NC(=O)CC(C)(C)C)cc2c(c1C)OC(C)(C)C2(O)c1cccc(C(C)C)c1 (configuration not stated)	136 to 137
CCc1cc(Nc2ccc(NC(=O)c3ccccc3S(=O)(=O)O)cc2)n2nccc2n1	> 320
CCOC(=O)c1cn(C(c2ccccc2)(c2ccccc2)c2ccccc2)nn1	201 to 203
CCOC(=O)[C@H](CCc1ccccc1)N[C@@H](C)C(=O)N1N=C(c2ccc(SC)cc2)S[C@H]1C(=O)O	163 to 164
N#Cc1nccc2cccc(-n3cccc3)c12	178
O=C(NC1CCC(CCN2CCC(c3cccc4c3CCO4)CC2)CC1)c1ccc(N2CCS(=O)(=O)CC2)cc1 (configuration not stated)	282
CC12CCC(C1)C(C)(C)C2(S)CCO (configuration not stated)	55 to 60
CC(=O)NC(=S)c1nc2cc(Cl)c(Cl)cc2n1S(=O)(=O)N(C)C	172 to 173
Cc1c(F)c(N2CCNCC2)c(F)c2c1c(=O)c(C(=O)O)cn2-c1ccc(F)cc1F	240 to 242
Nc1ccc(N=Nc2ccc(N)c(C(F)(F)F)c2)c(C(F)(F)F)c1	136
C=CCN(C(=O)Nc1cc(C)c(S(=O)(=O)C[N+](=O)[O-])c(C)c1)c1ccccc1	164 to 165
CC1(N)CN(c2cc3c(cc2F)c(=O)c(C(=O)O)cn3-c2ccc(F)cc2F)C1	210 to 216
COc1c(C)cc(C2=C(c3ccc(S(C)(=O)=O)cc3)OC(C)(C)C2=O)cc1C	130 to 131
CCOC(=O)c1nnc2ccc(NC(C)=O)cc2c1O	280 to 281
CCCCCCc1ccc(C#Cc2ccc(Br)cc2)cc1	67
CCCCCCCC(=O)Nc1ccc(O)c(C(=O)O)c1	200 to 204

SMILES	melting point [°C]
COCCc1nc2c(N)nc3ccccc3c2n1CCOCCN(C)S(=O)(=O)C(C)C	130
CCOc1ccc(C(=O)CCC(=O)Nc2cn(Cc3ccccc3)nc2-c2ccccc2)cc1	138 to 141
C#CC(C)N(C)c1nc2ccc(OC(F)(F)F)cc2s1 (configuration not stated)	42 to 43
CC(=O)ONC(=N)c1ccc(-c2cccc(-c3nc4ccc(C(=N)NOC(C)=O)cc4[nH]3)n2)cc1	150 to 153
CC(=O)Nc1nc(CCc2ccc(C#N)cc2)cs1	205 to 206
C[C@@H](c1ccccc1)N1CC[C@@H](C2(N(Cc3ccccc3)Cc3ccccc3)CC2)C1	61 to 61.3
CCn1c(=O)c2c(nc(/C=C/c3cccc(OC(C)=O)c3OC(C)=O)n2C)n(CC)c1=O	228 to 230
CC(C)(C)OC(=O)Nc1cc(OCc2ccccc2)c2ccc(C#N)cc2c1	145
CNCc1ccc2c(Br)c(OC)ccc2c1	41 to 45
CCCCOc1cc(CNCCN(CC)CC)cc(S(N)(=O)=O)c1Cc1ccccc1	89 to 93
COC(=O)C(O)C(Sc1cc(Oc2cccc(C)c2)ccc1N)c1ccc(OC)cc1 (configuration not stated)	112 to 115
ClCCCn1c2ccccc2c2cc(-c3nc(-c4ccccc4)no3)ncc21	192 to 195
CC(C)C(=O)N[C@@H](CSC(=O)C(C)(C)C)C(=O)NCCSC(=O)c1ccccc1	112 to 114
CC(=O)NC(NC(=O)c1cc(C)cc(C)c1)C(N)=O (configuration not stated)	244 to 245
Cc1cc(-n2cncn2)c2cccc(OCc3c(Cl)ccc(S(=O)(=O)N4CCC[C@H]4C(=O)O)c3Cl)c2n1	146
O=C(O)Cc1cc2c(s1)-c1ccccc1SC2	106 to 110
O=C(Nc1ccc(Cl)c(C(F)(F)F)c1)Oc1ccc2c(c1)CCCN2	150
O=C(O)c1ccc(COCc2csc3nc(C(=O)NCc4ccc(F)c(C(F)(F)F)c4)[nH]c(=O)c23)cc1	258 to 259
O=S(=O)(Cl)c1cccc2c(I)cccc12	113 to 114
COc1ccc(C2=NN(c3nc(-c4cccs4)ns3)C(=O)[C@H]3CC=CC[C@@H]23)cc1Cl (relative stereo)	254 to 256
CCOc1cc(O)nc(N(C)C)n1	194 to 195
CCCn1c(=O)n(-c2ccc3c(c2)OCO3)c2ncccc21	112 to 114
